Key:
[1] = test system: cataleptic syndrome; assay: Cataleptogenic effects (cataleptic syndrome, method of Wirth et al.); type: in vivo, rats, Sprague-Dawley; conditions: dose 100 mg/kg ip; cataleptic animals / animals per dose; tested 30 to 300 min after administration
Description: The cataleptic syndrome was tested according to the method described by Wirth et al. (Arch. Int. Pharmacodyn. Ther. 115, 1-31, 1958). The animals (male rats, Sprague-Dawley bodyweight 210-225 g; n/dose=4) were regarded as cataleptic if they remained in an abnormal posture for more than 15 sec, i.e. one foreleg an a 9-cm-high piece of cork. The animals were tested 30m 60, 120, 180 and 300 min after intraperitoneal administration of the test compound.

[2] = test system: homer mRNA; assay: Homer gene expression in brain by in situ hybridization histochemistry; type: in vivo, Sprague-Dawley rats; conditions: for Homer gene expression induced by treatment with amphetamine: brain frontal cortex, amphetamine plus compound
Description: Adult Sprague-Dawley rats (250 g) were maintained in normal environmental conditions with free access to food and water ab libitum. Animals were treated with haloperidol (0.5 and 5 mg/kg) or saline. Naive (non-treated) animals were used as additional controls. Animals were also treated with amphetamine or with amphetamine and MPEP or SIB-1893 as described in example 18b. The animals were sacrificed by decapitation 90 minutes after treatment. Whole brain was rapidly removed from the skull, frozen in dry ice and stored at -30°C. Rat brain sections (15 μm) were obtained at -20°C in a cryostat, mounted in gelatine-coated slides and stored at -30°C until used. Olygonucleotide sequences 40 base length were selected from the homer rat gene sequence published in the GENEBANK (accession number: U92079). Antisense oligonucleotide homerAT ([NT]) was complementary to bases 559 to 599. Antisense oligonucleotide homerBT ([NT]) was complementary to bases 894-934. The corresponding sense oligonucleotides (homerAS and homerBS) were used as control probes. Synthesis was performed in a 395 Applied Biosystems DNA Synthesizer. Purified oligonucleotides were dissolved in DEPC-treated water and stored at -30°C until use. Labelling of synthetic oligoprobes was performed using a deoxynucleotidyl-transferase (TdT) labelling kit (NEP-100, NEN, Bad-Homburg, Germany). Briefly, 5 pmol of probe were incubated (2 hr) with TdT (36 units) in presence of 50 pmol of (^35S] dATP (NEN) and Cl2Co. […] Labelling efficacy was checked by paper chromatography in phosphate buffer system. Homer gene expression in rat brain was studied using in situ hybridization techniques well known in the art. In situ hybridization was performed as previously described (Garcia-Ladona et al., 1994). Briefly, Tissue sections were fixed with paraformaldehyde in PBS and treated (min) with pronase (0.25 mg/l), rapidly washed, dehydrated by consecutive incubation with 60%, 80%, 90% and 100% ethanol, rapidly dried and used for hybridization. […]

[3] = test system: methamphetamine-induced hyperactivity; assay: Methamphetamine antagonism (methamphetamine-induced hyperactivity, measurement of locomotor activity); type: in vivo, Mice (NMRI); conditions: drug ip 30 min prior to methamphetamine 1 mg/kg po; counts 15 to 60 min after start of measurement
Description: Methamphetamine antagonism was tested by recording methamphetamine-induced hyperactivity (measurement of locomotor activity). Mice (NMRI, 21-26 g; female) received drug or vehicle, intraperitoneally, 30 min prior to methamphetamine (MET, 1 mg/kg po). Locomotor activity was recorded in cages equipped with light beams (2 mice/cage/dose) for 1 h, starting 30 min after MET. For calculation of drug effects the counts recorded during the time period of 15 to 60 min after start of the measurement were selected. The control value was calculated as the difference between the counts recorded for the methamphetamine group and the vehicle-treated group during the same time period.

Compound | Cataleptogenic effect [x/n] at dose [mg/kg ip] [1] | Homer gene expression induced by treatment with amphetamine [2] | Methamphetamine antagonism ED50 [3] [mg/kg ip] | homer mRNA transcripts (in situ hybridization images) ([2]; haloperidol 0.5 and 5 mg/kg vs controls, rat brain, 90 minutes after treatment)
Cc1cccc(C=Cc2ccccc2)n1 [BSF 470213, 2-methyl-6-(2-phenylethenyl)-pyridine] | 0/4 at dose 100 | reduced | 53.4 | –
Cc1cccc(C#Cc2ccccc2)n1.Cl [BSF 470214, 2-methyl-8-(phenylethynyl)-pyridine hydrochloride] | 0/4 at dose 100 | reduced | 51.2 | –
O=C(CCCN1CCC(O)(c2ccc(Cl)cc2)CC1)c1ccc(F)cc1 [haloperidol] | – | – | – | higher levels in haloperidol treated animals than in controls

Reference: EP1900360A1, “Homer a new target of treating psychiatric disorders” (Abbott GmbH & Co. KG, priority 1998, dated 2000)
